In the NIST ThermoML archive (doi:10.1021/je0601457):

Test: xn = mol fraction of the nth substance listed

c1cnccn1 [pyrazine] + O=C=O
Fluid (supercritical or subcritical phases), Linear displacement technique
Conditions | mass density [kg/m3]
294.25 K, 5340 kPa, x1 = 0.308 | 1054
294.25 K, 9480 kPa, x1 = 0.308 | 1070
294.25 K, 12170 kPa, x1 = 0.308 | 1078
295.55 K, 6450 kPa, x1 = 0.019 | 854
295.55 K, 7000 kPa, x1 = 0.019 | 877
295.55 K, 9070 kPa, x1 = 0.019 | 915
295.65 K, 5520 kPa, x1 = 0.146 | 887
295.65 K, 5970 kPa, x1 = 0.074 | 926
295.65 K, 6100 kPa, x1 = 0.074 | 929
295.65 K, 6310 kPa, x1 = 0.074 | 941
295.65 K, 6380 kPa, x1 = 0.116 | 815
295.65 K, 6520 kPa, x1 = 0.146 | 898
295.65 K, 8210 kPa, x1 = 0.116 | 833
295.65 K, 12790 kPa, x1 = 0.146 | 926
296.25 K, 6140 kPa, x1 = 0.09 | 873
296.25 K, 9830 kPa, x1 = 0.09 | 923
298.25 K, 6590 kPa, x1 = 0.015 | 863
298.25 K, 7520 kPa, x1 = 0.015 | 892
298.25 K, 8790 kPa, x1 = 0.015 | 918
299.45 K, 7760 kPa, x1 = 0.224 | 921
300.75 K, 6520 kPa, x1 = 0.177 | 894
300.75 K, 7070 kPa, x1 = 0.177 | 898
300.75 K, 10790 kPa, x1 = 0.177 | 917
303.65 K, 7070 kPa, x1 = 0.074 | 903
303.65 K, 8720 kPa, x1 = 0.074 | 924
303.75 K, 7480 kPa, x1 = 0.015 | 828
303.75 K, 9410 kPa, x1 = 0.015 | 898
303.75 K, 10240 kPa, x1 = 0.015 | 917
303.75 K, 12450 kPa, x1 = 0.015 | 956
304.15 K, 7690 kPa, x1 = 0.019 | 791
304.15 K, 8380 kPa, x1 = 0.019 | 826
304.15 K, 9210 kPa, x1 = 0.019 | 849
304.15 K, 10520 kPa, x1 = 0.019 | 876
304.15 K, 11900 kPa, x1 = 0.019 | 898
304.25 K, 7340 kPa, x1 = 0.116 | 798
304.25 K, 7550 kPa, x1 = 0.116 | 801
304.25 K, 9550 kPa, x1 = 0.116 | 816
304.95 K, 7280 kPa, x1 = 0.308 | 1036
304.95 K, 9690 kPa, x1 = 0.308 | 1041
304.95 K, 13620 kPa, x1 = 0.308 | 1052
305.75 K, 6930 kPa, x1 = 0.146 | 839
305.75 K, 7280 kPa, x1 = 0.146 | 863
305.75 K, 11690 kPa, x1 = 0.146 | 886
305.85 K, 7340 kPa, x1 = 0.09 | 858
305.85 K, 10170 kPa, x1 = 0.09 | 884
306.35 K, 6520 kPa, x1 = 0.397 | 1049
306.35 K, 9690 kPa, x1 = 0.397 | 1061
306.35 K, 13690 kPa, x1 = 0.397 | 1070
308.25 K, 7550 kPa, x1 = 0.074 | 882
308.25 K, 9480 kPa, x1 = 0.074 | 906
308.65 K, 6030 kPa, x1 = 0.495 | 999
308.65 K, 7000 kPa, x1 = 0.495 | 1001
308.65 K, 9240 kPa, x1 = 0.495 | 1008
309.45 K, 7070 kPa, x1 = 0.177 | 872
309.45 K, 7620 kPa, x1 = 0.177 | 874
309.45 K, 9760 kPa, x1 = 0.177 | 884
312.05 K, 9480 kPa, x1 = 0.224 | 899
312.05 K, 9760 kPa, x1 = 0.015 | 778
312.05 K, 9930 kPa, x1 = 0.015 | 787
312.05 K, 10410 kPa, x1 = 0.015 | 812
312.05 K, 11100 kPa, x1 = 0.015 | 835
312.05 K, 16790 kPa, x1 = 0.224 | 919
312.75 K, 7760 kPa, x1 = 0.308 | 1023
312.75 K, 11690 kPa, x1 = 0.308 | 1033
312.75 K, 14830 kPa, x1 = 0.308 | 1043
313.55 K, 8450 kPa, x1 = 0.116 | 773
313.55 K, 8790 kPa, x1 = 0.116 | 778
313.55 K, 10860 kPa, x1 = 0.116 | 791
313.65 K, 9030 kPa, x1 = 0.019 | 687
313.65 K, 9140 kPa, x1 = 0.019 | 712
313.65 K, 9830 kPa, x1 = 0.019 | 761
313.65 K, 10450 kPa, x1 = 0.019 | 792
313.65 K, 10860 kPa, x1 = 0.019 | 809
313.65 K, 12520 kPa, x1 = 0.019 | 850
314.85 K, 8240 kPa, x1 = 0.146 | 833
314.85 K, 8860 kPa, x1 = 0.146 | 839
314.85 K, 14240 kPa, x1 = 0.146 | 869
314.95 K, 7830 kPa, x1 = 0.397 | 1040
314.95 K, 11280 kPa, x1 = 0.397 | 1048
314.95 K, 15140 kPa, x1 = 0.397 | 1060
315.85 K, 8660 kPa, x1 = 0.09 | 813
318.95 K, 9210 kPa, x1 = 0.015 | 512
318.95 K, 9280 kPa, x1 = 0.015 | 527
318.95 K, 9480 kPa, x1 = 0.015 | 571
320.15 K, 9140 kPa, x1 = 0.09 | 806
320.15 K, 10790 kPa, x1 = 0.09 | 830
320.95 K, 9660 kPa, x1 = 0.224 | 877
320.95 K, 13000 kPa, x1 = 0.224 | 889
321.55 K, 9280 kPa, x1 = 0.177 | 839
321.55 K, 10520 kPa, x1 = 0.177 | 847
321.55 K, 12520 kPa, x1 = 0.177 | 857

linear displacement
Conditions | mass density [kg/m3]
294.25 K, Liquid, x1 = 0.308 | 1048
295.55 K, Liquid, x1 = 0.019 | 842
295.65 K, Liquid, x1 = 0.074 | 922
295.65 K, Liquid, x1 = 0.116 | 809
295.65 K, Liquid, x1 = 0.146 | 887
296.25 K, Liquid, x1 = 0.09 | 864
298.25 K, Liquid, x1 = 0.015 | 857
299.45 K, Liquid, x1 = 0.224 | 910
300.75 K, Liquid, x1 = 0.177 | 889
303.65 K, Liquid, x1 = 0.074 | 900
303.75 K, Liquid, x1 = 0.015 | 802
304.15 K, Liquid, x1 = 0.019 | 776
304.25 K, Liquid, x1 = 0.116 | 795
304.95 K, Liquid, x1 = 0.308 | 1028
305.75 K, Liquid, x1 = 0.146 | 860
305.85 K, Liquid, x1 = 0.09 | 854
306.35 K, Liquid, x1 = 0.397 | 1042
308.25 K, Liquid, x1 = 0.074 | 878
308.65 K, Liquid, x1 = 0.495 | 992
309.45 K, Liquid, x1 = 0.177 | 870
312.05 K, Liquid, x1 = 0.015 | 656
312.05 K, Liquid, x1 = 0.224 | 887
312.75 K, Liquid, x1 = 0.308 | 1019
313.55 K, Liquid, x1 = 0.116 | 771
313.65 K, Liquid, x1 = 0.019 | 679
314.85 K, Liquid, x1 = 0.146 | 830
314.95 K, Liquid, x1 = 0.397 | 1037
315.85 K, Liquid, x1 = 0.09 | 810
318.95 K, Gas, x1 = 0.015 | 452
320.15 K, Liquid, x1 = 0.09 | 799
320.95 K, Liquid, x1 = 0.224 | 870
